Experimental data published in patent US12508280B2, “Formulations for improving gut health” (DSM IP ASSETS B.V., priority 2018, dated 2025).

Legend:
Format in all cases: cell-based, human
[1] = system: fecal inoculum of two healthy adults; test: Short-term colonic incubations, SCFA production (second set); conditions: 48 h fermentation
Protocol: In a second set of in vitro experiments, at the start of the short-term colonic incubations, the test ingredients were added to nutritional medium containing basal nutrients present in the colon (e.g. host-derived glycans such as mucin). Three doses were tested per product. The nutritional medium used for this particular project was again supplemented with NaCl, MgSO4, CaCl2, hemin and bile salts, and with carbon sources glucose, starch and cellobiose. A blank, containing the same nutritional medium as that used for the product incubations, but without product addition, was included for each donor. In doing so, an assessment can be made of the background activity of the bacterial community, which results from fermentation of compounds in the nutritional medium. As a source of the colonic microbiota a fecal inoculum of two healthy adults was added. Incubations were performed for 48 h at 37'C, under shaking (90 rpm) and anaerobic conditions and protected from light. […] Each compound was tested in three different concentrations; an overview is given in Table 2, below: Short chain fatty acids (SCFA) are an assessment of the microbial carbohydrate metabolism (acetate, propionate and butyrate) or protein metabolism (branched SCFA) and can be compared to typical fermentation patterns for normal GI microbiota. Samples for SCFA analysis were analyzed after 0, 6, 24 and 48 h of incubation for both set of in vitro experiments, above. SCFA were extracted from the samples with diethyl ether, after the addition of 2-methyl hexanoic acid as an internal standard. […], Belgium), a flame ionization detector and a split injector. The injection volume was […] and the temperature profile was set from 110 to 160° C., with a temperature increase of 6° C. min-1. […] The production of unbranched and branched SCFA was calculated by summing the molar concentrations of acetate, propionate, butyrate, valerate and caproate, and summing isobutyrate, isovalerate and isocaproate molar concentrations, respectively. The total SCFA production was defined as the sum of unbranched and branched SCFA.

[2] = system: colonic microbiota (fecal inoculum of two healthy adults); test: 16S-targeted Illumina sequencing with flow cytometry, taxa abundance (second set); conditions: 24 h fermentation
Protocol: (§1) In a second set of in vitro experiments, at the start of the short-term colonic incubations, the test ingredients were added to nutritional medium containing basal nutrients present in the colon (e.g. host-derived glycans such as mucin). Three doses were tested per product. The nutritional medium used for this particular project was again supplemented with NaCl, MgSO4, CaCl2, hemin and bile salts, and with carbon sources glucose, starch and cellobiose. A blank, containing the same nutritional medium as that used for the product incubations, but without product addition, was included for each donor. In doing so, an assessment can be made of the background activity of the bacterial community, which results from fermentation of compounds in the nutritional medium. As a source of the colonic microbiota a fecal inoculum of two healthy adults was added. Incubations were performed for 48 h at 37′C, under shaking (90 rpm) and anaerobic conditions and protected from light. […] For the second set of in vitro experiments, two techniques were combined according to Vandeputte et al.

[3] = system: colonic microbiota (fecal inoculum of two healthy adults); test: Microbiome diversity, alpha and beta (second set)
Protocol: as §1

CC1=C(/C=C/C(C)=C/C=C/C(C)=C/C=C/C=C(C)/C=C/C=C(C)/C=C/C2=C(C)CCCC2(C)C)C(C)(C)CCC1 [β-carotene]
butyrate production ([1]; 0.2× dose, donor C): increase butyrate production
acetate production ([1]; 1× dose, both donors): increase acetate production
butyrate production ([1]; 1× dose, both donors): increase butyrate production
total SCFA production ([1]; 1× dose, both donors): increase total SCFA production
propionate production ([1]; 1× dose, donor C): increase propionate production
acetate production ([1]; 5× dose, both donors): increase acetate production
total SCFA production ([1]; 5× dose, both donors): increase total SCFA production
propionate production ([1]; 5× dose, donor C): increase propionate production
Bifidobacteriaceae relative abundance ([2]; 1× dose, both donors): increase Bifidobacteriaceae relative abundance
Clostridiaceae relative abundance ([2]; 1× dose, donor C): increase Clostridiaceae relative abundance
Prevotellaceae relative abundance ([2]; 1× dose, donor C): increase Prevotellaceae relative abundance
Coriobacteriaceae relative abundance ([2]; 1× dose, donor D): increase Coriobacteriaceae relative abundance
Faecalibacterium prausnitzii relative abundance ([2]; 1× dose, donor D): increase Faecalibacterium prausnitzii relative abundance
Veillonellaceae relative abundance ([2]; 1× dose, donor D): increase Veillonellaceae relative abundance
Akkermansiaceae relative abundance ([2]; 5× dose, both donors): increase Akkermansiaceae relative abundance
Bifidobacteriaceae relative abundance ([2]; 5× dose, both donors): increase Bifidobacteriaceae relative abundance
Desulfovibrionaceae relative abundance ([2]; 5× dose, both donors): decrease Desulfovibrionaceae relative abundance
Eggerthellaceae relative abundance ([2]; 5× dose, both donors): increase Eggerthellaceae relative abundance
Barnesiellaceae relative abundance ([2]; 5× dose, donor D): increase Barnesiellaceae relative abundance
Coriobacteriaceae relative abundance ([2]; 5× dose, donor D): increase Coriobacteriaceae relative abundance
Faecalibacterium prausnitzii relative abundance ([2]; 5× dose, donor D): increase Faecalibacterium prausnitzii relative abundance
Veillonellaceae relative abundance ([2]; 5× dose, donor D): increase Veillonellaceae relative abundance
beta-diversity (Bray-Curtis distance to control) ([3]; 0.2× dose, donor D): increases beta-diversity
beta-diversity (Bray-Curtis distance to control) ([3]; 1× dose, both donors): increases beta-diversity
beta-diversity (Bray-Curtis distance to control) ([3]; 1× dose, donor D): increases beta-diversity
beta-diversity (Bray-Curtis distance to control) ([3]; 5× dose, both donors): increases beta-diversity

Calcium D-Pantothenate [vitamin B5]
propionate production ([1]; 0.2× dose, donor C): increase propionate production
branched SCFA production ([1]; 5× dose, both donors): decrease branched SCFA production
Akkermansiaceae relative abundance ([2]; 0.2× dose, donor D): increase Akkermansiaceae relative abundance
Faecalibacterium prausnitzii relative abundance ([2]; 0.2× dose, donor D): increase Faecalibacterium prausnitzii relative abundance
Veillonellaceae relative abundance ([2]; 0.2× dose, donor D): increase Veillonellaceae relative abundance
Erysipelotrichaceae relative abundance ([2]; 1× dose, donor D): increase Erysipelotrichaceae relative abundance
Faecalibacterium prausnitzii relative abundance ([2]; 1× dose, donor D): increase Faecalibacterium prausnitzii relative abundance
Bifidobacteriaceae relative abundance ([2]; 5× dose, both donors): increase Bifidobacteriaceae relative abundance
Desulfovibrionaceae relative abundance ([2]; 5× dose, donor C): decrease Desulfovibrionaceae relative abundance
Faecalibacterium prausnitzii relative abundance ([2]; 5× dose, donor D): increase Faecalibacterium prausnitzii relative abundance
alpha-diversity (Shannon diversity index) ([3]; 0.2× dose, donor D): increases alpha-diversity
beta-diversity (Bray-Curtis distance to control) ([3]; 5× dose, both donors): increases beta-diversity
alpha-diversity (Shannon diversity index) ([3]; 5× dose, donor D): increases alpha-diversity
